US20090285834A1, “NOVEL MEMORY CTL INDUCTION POTENTIATOR” (DAINIPPON SUMITOMO PHARMA CO., LTD., priority 2005, published 2009)

Experiments:
EG7 (OVA-expressing EL4) = assay type: in vivo, mouse (C57BL/6NCrj); settings: with peptide vaccine; EG7 transplanted 21 days after peptide administration; followed to day 28; compared with PBS; FIG. 5
Procedure: Twenty-one days after peptide administration, 5×10^6 EG7 (OVA-expressing EL4: ATCC) suspended in 100 μL PBS was intradermally transplanted at the right flank using a 27 G injection needle after shaving. Tumor diameters (minimum diameter, maximum diameter) were measured using electronic calipers twice a week from 1 week to 28 days after EG7 transplantation, and tumor volumes were calculated.

cytokine production = settings: in vivo; cited from earlier work
lymphocytes = settings: in vivo; cited from earlier work

Row | Compound | tumor growth suppression (tumor volume) (EG7 (OVA-expressing EL4)) | time from which cytokine production is exhibited after administration (cytokine production) [h] | time at which the reduction in lymphocytes reaches a peak (lymphocytes) [days]
1 | CCOCc1nc2c(N)nc3ccccc3c2n1CC(C)(C)O [R848] | a slight suppression against proliferation was observed | ≥ 1 | –
2 | O=P1(N(CCCl)CCCl)NCCCO1 (stereo not drawn) [cyclophosphamide] | – | – | 3 to 4
